According to US10570117B2, “Phenylimidazole compound” (Otsuka Pharmaceutical Factory, Inc., priority 2015, dated 2020):
In brackets after ≈: the same amount, converted by molar mass. Where two headings read alike, the source gives them in different places.

What was measured:
[1] = test system: lipoprotein lipase (LPL) gene; assay: LPL mRNA elevating action (RT-PCR quantification of LPL mRNA in C2Cl2 cells); assay type: cell-based, mouse; details: Mus musculus, 24 h, compound 10 μM, ratio relative to the amount of LPL mRNA in cells with DMSO only, read-out: Rate of increase in LPL mRNA
How it was run: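 Mouse striated-muscle C2Cl2 cells in DMEM with 10% FBS exposed to compounds at 10 μM for 24 h. LPL mRNA quantified by RT-PCR and real-time PCR (20 cycles), expressed as ratio to DMSO-only cells set at 1.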

[2] = Solubility in gastric juice or intestinal juice model fluid (precipitation method using DMSO); assay type: physicochemical; details: room temperature
How it was run: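 Compound in DMSO added to JP disintegration test fluid 1 (pH 1.2) or fluid 2 (pH 6.8) and shaken 24 h at room temperature. After filtration, dissolved concentration (μg/mL) determined by UV absorbance against compound calibration curves.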

[3] = pH 1.2, simulated gastric fluid, kinetic from dmso stock, 1st fluid for Disintegration Test of Japanese Pharmacopoeia (pH: 1.2), read-out: Solubility (μg/mL) 1st fluid
[4] = pH 6.8, kinetic from dmso stock, 2nd fluid for Disintegration Test of Japanese Pharmacopoeia (pH: 6.8), read-out: Solubility (μg/mL) 2nd fluid

| melting point | solubility at 24 h [2, 3] | solubility at 24 h [2, 4] | Compound | fold induction at 10 µM [1] |
| --- | --- | --- | --- | --- |
| 190 to 193 °C | 9.9 µg/mL (≈ 20.7 µM) | 1.1 µg/mL (≈ 2.3 µM) | COc1cc(OCc2ccc(C(F)(F)F)cn2)ccc1-c1nc(-c2ccc(F)nc2)[nH]c1Cl [Example 233] | 3.87 |
| 171 to 175 °C | 92.8 µg/mL (≈ 199 µM) | < 0.3 µg/mL | COc1cc(-c2nc(C3CCCCC3)[nH]c2Cl)ccc1OCc1ccc(C(F)(F)F)cn1 [Example 234] | 3.06 |
| 170 to 175 °C | 7.1 µg/mL (≈ 14.4 µM) | < 1.8 µg/mL | COc1cc(OC(C)c2cccc(C(F)(F)F)n2)ccc1-c1[nH]c(-c2ccc(F)nc2)nc1Cl (stereo not drawn) [Example 237] | 2.82 |
| 173 to 175 °C | 7.5 µg/mL (≈ 14.4 µM) | 5.6 µg/mL (≈ 10.7 µM) | COc1cc(OC(C)c2ncc(Br)cc2F)ccc1-c1[nH]c(-c2ccc(F)nc2)nc1Cl (stereo not drawn) [Example 238] | 2.42 |
| 148 to 150 °C | 8.8 µg/mL (≈ 17.9 µM) | 15.6 µg/mL (≈ 31.7 µM) | COc1cc(OC(C)c2ccc(C(F)(F)F)nc2)ccc1-c1[nH]c(-c2ccc(F)nc2)nc1Cl (stereo not drawn) [Example 239] | 2.39 |
| 187 to 190 °C | 8.4 µg/mL (≈ 18.1 µM) | 5.3 µg/mL (≈ 11.4 µM) | COc1cc(OCc2ncc(F)cc2F)ccc1-c1[nH]c(-c2ccc(Cl)nc2)nc1Cl [Example 247] | 2.25 |
| 176 to 186 °C | 5.9 µg/mL (≈ 10.9 µM) | 1 µg/mL (≈ 1.85 µM) | COc1cc(OCc2ncccc2C(F)(F)F)ccc1-c1[nH]c(-c2ccc(Cl)nc2)nc1Br [Example 253] | 2.62 |
| 156 to 158 °C | 17.5 µg/mL (≈ 32.3 µM) | < 0.4 µg/mL | COc1cc(OCc2ncc(C(F)(F)F)cc2F)ccc1-c1[nH]c(-c2ccc(F)nc2)nc1Br [Example 255] | 3.14 |
| 132 to 162 °C | 11.4 µg/mL (≈ 21.8 µM) | < 0.4 µg/mL | COc1cc(OCc2cnccc2C(F)(F)F)ccc1-c1[nH]c(-c2ccc(F)nc2)nc1Br [Example 256] | 3.12 |
| 195 to 199 °C | 2.2 µg/mL (≈ 4.2 µM) | 5.8 µg/mL (≈ 11.1 µM) | COc1cc(OCc2ncc(Cl)cc2Br)ccc1-c1[nH]c(-c2ccc(F)nc2)nc1Cl [Example 265] | 3.36 |
| 161 to 164 °C | 64.3 µg/mL (≈ 131 µM) | 4.6 µg/mL (≈ 9.36 µM) | COc1cc(OCc2ncc(F)cc2F)ccc1-c1[nH]c(-c2ccc(F)nc2)nc1Br [Example 266] | 2.38 |
| 175 to 178 °C | 17.7 µg/mL (≈ 34.9 µM) | 0.4 µg/mL (≈ 0.788 µM) | COc1cc(OCc2ncc(Cl)cc2F)ccc1-c1[nH]c(-c2ccc(F)nc2)nc1Br [Example 267] | 2.66 |
| 179 to 181 °C | 13.8 µg/mL (≈ 25 µM) | 6.6 µg/mL (≈ 12 µM) | COc1cc(OCc2ncc(Br)cc2F)ccc1-c1[nH]c(-c2ccc(F)nc2)nc1Br [Example 268] | 2.53 |
| 176 to 179 °C | 9.1 µg/mL (≈ 17.4 µM) | < 0.4 µg/mL | COc1cc(OCc2cncc(C(F)(F)F)c2)ccc1-c1[nH]c(-c2ccc(F)nc2)nc1Br [Example 270] | 3.81 |
| 167 to 168 °C | 6.7 µg/mL (≈ 12 µM) | 0.4 µg/mL (≈ 0.717 µM) | COc1cc(OCc2ncc(Cl)cc2C(F)(F)F)ccc1-c1[nH]c(-c2ccc(F)nc2)nc1Br [Example 274] | 3.41 |
| 199 to 203 °C (dec.) | 66.5 µg/mL (≈ 127 µM) | 6.7 µg/mL (≈ 12.8 µM) | COc1cc(OCc2ccncc2C(F)(F)F)ccc1-c1[nH]c(-c2ccc(F)nc2)nc1Br [Example 276] | 2.36 |
| 188 to 190 °C | 4.1 µg/mL (≈ 8.56 µM) | 0.5 µg/mL (≈ 1.04 µM) | COc1cc(OCc2cncc(C(F)(F)F)c2)ccc1-c1[nH]c(-c2ccc(F)nc2)nc1Cl [Example 279] | 3.63 |
| 150 to 152 °C | 9.7 µg/mL (≈ 19.5 µM) | 9.3 µg/mL (≈ 18.7 µM) | COc1cc(OCc2ncc(C(F)(F)F)cc2F)ccc1-c1[nH]c(-c2ccc(F)nc2)nc1Cl [Example 281] | 3.36 |
| 137 to 139 °C | < 0.3 µg/mL | 27.6 µg/mL (≈ 56.1 µM) | COc1cc(O[C@H](C)c2ccc(C(F)(F)F)cc2)ccc1-c1[nH]c(-c2ccc(F)nc2)nc1Cl [Example 290] | 2.64 |
| 144 to 146 °C | > 111 µg/mL | < 9.9 µg/mL | COc1cc(OCc2ccc(C(F)(F)F)cn2)ccc1-c1nc(C2CCC(F)(F)CC2)n(CC2CC2)c1Cl [Example 292] | 2.81 |

| melting point | solubility at 24 h [2, 3] | solubility at 24 h [2, 4] | Compound | fold induction at 10 µM [1] |
| --- | --- | --- | --- | --- |
| 123 to 126 °C | 104 µg/mL (≈ 189 µM) | 2.4 µg/mL (≈ 4.37 µM) | COc1cc(OCc2ccc(C(F)(F)F)cn2)ccc1-c1nc(-c2ccc(Cl)nc2)n(CC2CC2)c1Cl [Example 294] | 2.42 |
| 130 to 132 °C | 18.3 µg/mL (≈ 33.3 µM) | 1.1 µg/mL (≈ 2 µM) | COc1cc(OCc2ccc(C(F)(F)F)cn2)ccc1-c1c(Cl)nc(-c2ccc(Cl)nc2)n1CC1CC1 [Example 295] | 4.06 |
| 131 to 136 °C | 89.8 µg/mL (≈ 167 µM) | 7 µg/mL (≈ 13 µM) | COCCn1c(-c2ccc(F)nc2)nc(Cl)c1-c1ccc(OCc2ccc(C(F)(F)F)cn2)cc1OC [Example 297] | 2.76 |
| 125 to 127 °C | 15.1 µg/mL (≈ 27.3 µM) | < 0.4 µg/mL | COc1cc(OCc2ccc(C(F)(F)F)cn2)ccc1-c1c(Br)nc(-c2ccc(Cl)nc2)n1C [Example 301] | 2.99 |
| 179 to 181 °C | > 107 µg/mL | < 0.4 µg/mL | COc1cc(OCc2ccc(C(F)(F)F)cn2)ccc1-c1nc(-c2ccc(F)nc2)n(C)c1Br [Example 302] | 2.44 |
| 130 to 132 °C | 84.3 µg/mL (≈ 157 µM) | < 0.4 µg/mL | COc1cc(OCc2ccc(C(F)(F)F)cn2)ccc1-c1c(Br)nc(-c2ccc(F)nc2)n1C [Example 303] | 3.29 |
| 133 to 135 °C | 14.8 µg/mL (≈ 29.1 µM) | < 0.4 µg/mL | COc1cc(OCc2ccc(C(F)(F)F)cn2)ccc1-c1c(Cl)nc(-c2ccc(Cl)nc2)n1C [Example 309] | 2.37 |
| 209 to 214 °C (dec.) | 62.3 µg/mL (≈ 195 µM) | 5 µg/mL (≈ 15.6 µM) | COc1cc(O)ccc1-c1[nH]c(-c2ccc(F)nc2)nc1Cl [Example 313] | 1.33 |
| 234 to 239 °C | 50.2 µg/mL (≈ 109 µM) | 0.9 µg/mL (≈ 1.95 µM) | COc1cc(OCc2ccc(C(F)(F)F)[n+]([O-])c2)ccc1-c1cnc(-c2ccc(F)nc2)[nH]1 [Example 314] | 1.66 |
| > 250 °C | 1.8 µg/mL (≈ 3.64 µM) | 2.7 µg/mL (≈ 5.46 µM) | COc1cc(OCc2ccc(C(F)(F)F)[n+]([O-])c2)ccc1-c1[nH]c(-c2ccc(F)nc2)nc1Cl [Example 315] | 2.7 |
| 162 to 167 °C | 94.4 µg/mL (≈ 197 µM) | 4.9 µg/mL (≈ 10.2 µM) | COc1cc(OCc2c(F)cc(C(F)(F)F)c[n+]2[O-])ccc1-c1cnc(-c2ccc(F)nc2)[nH]1 [Example 316] | 2.53 |
| 105 to 110 °C | 69.1 µg/mL (≈ 135 µM) | 9.3 µg/mL (≈ 18.1 µM) | COc1cc(OCc2c(F)cc(C(F)(F)F)c[n+]2[O-])ccc1-c1[nH]c(-c2ccc(F)nc2)nc1Cl [Example 317] | 2.9 |
| 105 to 120 °C | 100 µg/mL (≈ 180 µM) | 8.7 µg/mL (≈ 15.6 µM) | COc1cc(OCc2c(F)cc(C(F)(F)F)c[n+]2[O-])ccc1-c1[nH]c(-c2ccc(F)nc2)nc1Br [Example 318] | 3.15 |
| 156 to 158 °C | 4.7 µg/mL (≈ 9.78 µM) | 0.5 µg/mL (≈ 1.04 µM) | COc1cc(OCc2ncc(C(F)(F)F)cc2F)ccc1-c1[nH]c(-c2ccc(F)nc2)nc1F [Example 319] | 3.74 |
| 109 to 116 °C | 69.4 µg/mL (≈ 166 µM) | 1.9 µg/mL (≈ 4.56 µM) | COc1cc(OCc2cnc(Cl)s2)ccc1-c1cnc(-c2ccc(F)nc2)[nH]1 [Example 321] | 1.82 |
| 227 to 232 °C | 72 µg/mL (≈ 176 µM) | 1.3 µg/mL (≈ 3.18 µM) | COc1cc(OCc2cc(C(C)C)no2)ccc1-c1cnc(-c2ccc(F)nc2)[nH]1 [Example 322] | 1.55 |
| 157 to 159 °C | 78.3 µg/mL (≈ 161 µM) | 17 µg/mL (≈ 35 µM) | COc1cc(-c2cnc(C3CCC(F)(F)CC3)[nH]2)ccc1OCc1ncc(C(F)(F)F)cc1F [Example 323] | 1.72 |
| 165 to 170 °C | 4.7 µg/mL (≈ 9.46 µM) | 1.3 µg/mL (≈ 2.62 µM) | COc1cc(-c2[nH]c(-c3ccc(F)nc3)nc2Cl)ccc1OCc1ncc(C(F)(F)F)cc1F [Example 325] | 2.44 |
| 173 to 176 °C | 63.7 µg/mL (≈ 123 µM) | 0.7 µg/mL (≈ 1.35 µM) | COc1cc(-c2[nH]c(C3CCC(F)(F)CC3)nc2Cl)ccc1OCc1ncc(C(F)(F)F)cc1F [Example 326] | 2.63 |
